As a reminder, the EC50 is the concentration giving half of the maximal effect.

A value given as a limit tells only on which side of the number the result lay.

The target in this test is RIPK1 (recombinant GST-RIPK1 kinase domain, residues 1-327) (Homo sapiens (Human), UniProt Q13546). Kind of test: RIPK1-ADP-Glo Enzymatic Assay. Format: biochemical. The note with it: ADP-Glo; 25 nM GST-RIPK1, 300 μM ATP; assay lower limit ~25 nM; read-out: RIPK1 V0 Ec50. The gist of the method: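 GST-tagged kinase domain (residues 1-327, Sf21-expressed), 25 nM, pre-incubated 30 min with compound at ambient temperature, then reacted 150 min with 300 μM ATP and 3 μM dephosphorylated MBP in HEPES pH 7.3 buffer. ADP measured by ADP-Glo luminescence; EC50 from ten-point titration (top 100000 nM), four-parameter fit.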
RIPK1 (recombinant GST-RIPK1 kinase domain, residues 1-327), sequence (Q13546 1-327): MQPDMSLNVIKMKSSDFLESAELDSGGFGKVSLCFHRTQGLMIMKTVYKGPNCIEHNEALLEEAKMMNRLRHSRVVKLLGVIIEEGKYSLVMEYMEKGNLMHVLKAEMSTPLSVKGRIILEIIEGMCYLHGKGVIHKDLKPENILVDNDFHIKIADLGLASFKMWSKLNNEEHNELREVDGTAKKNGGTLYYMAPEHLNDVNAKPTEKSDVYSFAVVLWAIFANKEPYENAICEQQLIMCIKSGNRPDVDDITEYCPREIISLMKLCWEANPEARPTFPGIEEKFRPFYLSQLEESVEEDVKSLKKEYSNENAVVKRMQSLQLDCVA
In general terms: ADP-Glo first removes unused ATP, then detects ADP through luciferase.
Regarding `O=C1N2[C@@H](CC[C@H]2c2ccccc2)OC12CCN(c1cc(C3CC3)ccn1)CC2` [Example 11.22, (5′S,7a′R)-1-(4-cyclopropylpyridin-2-yl)-5′-phenyltetrahydro-3′H-spiro[piperidine-4,2′-pyrrolo[2,1-b][1,3]oxazol]-3′-one], the EC50 turned out to be 761 nM. For the compound `Cc1cc(N2CCC3(CC2)O[C@@H]2CC[C@@H](c4ccccc4)N2C3=O)cc(C#N)n1` [Example 4.16, 6-methyl-4-[(5′S,7a′R)-3′-oxo-5′-phenyltetrahydro-1H,3′H-spiro[piperidine-4,2′-pyrrolo[2,1-b] [1,3]oxazol]-1-yl]pyridine-2-carbonitrile], the EC50 was less than 25 nM. The result for `O=C1N2[C@@H](CC[C@H]2c2ccccc2)OC12CCN(c1ccc(Br)n3ncnc13)CC2` [Example 4.216, (5′S,7a′R)-1-(5-bromo [1,2,4]triazolo[1,5-a]pyridin-8-yl)-5′-phenyltetrahydro-3′H-spiro[piperidine-4,2′-pyrrolo[2,1-b] [1,3]oxazol]-3′-one] reads less than 25 nM; that for `O=C(c1ncoc1C1CC1)N1CCC2(CC1)O[C@@H]1CC[C@@H](c3cc(F)cc(F)c3)N1C2=O` [Example 6.24, (5′S,7a′R)-1-(5-cyclo-propyl-1,3-oxazole-4-carbonyl)-5′-(3,5-difluorophenyl)tetra-hydro-3′H-spiro[piperi-dine-4,2′-pyrrolo[2,1-b][1,3]oxazol]-3′-one], 32.3 nM. Turning to `O=C1N2[C@@H](CC[C@H]2c2ccccc2F)OC12CN(c1cc(Cl)ncn1)C2` [Example 4.107, (5′S,7a′R)-1-(6-chloropyrimidin-4-yl)-5′-(2-fluorophenyl)tetrahydro-3′H-spiro[azetidine-3,2′-pyrrolo[2,1-b]oxazol]-3′-one], the 50% effective concentration (EC50) is 101 nM. For `O=C1N2[C@@H](CC[C@H]2c2ccccc2)OC12CCN(c1ncnc3ccnn13)CC2F` (single isomer, unassigned) [Example 4.98, (3[S or R],4[R or S], 5′S,7a′R)-3-fluoro-5′-phenyl-1-(pyrazolo [1,5-a][1,3,5]triazin-4-yl)tetrahydro-3′H-spiro[piperidine-4,2′-pyrrolo[2,1-b]oxazol]-3′-one] the value was 36.3 nM; for `Cc1nc(Cl)c(C)c(N2CCC3(CC2)O[C@@H]2CC[C@@H](c4ccccc4)N2C3=O)n1` [Example 4.22, (5′S,7a′R)-1-(6-chloro-2,5-dimethylpyrimidin-4-yl)-5′-phenyltetrahydro-3′H-spiro[piperidine-4,2′-pyrrolo[2,1-b] [1,3]oxazol]-3′-one], 26.9 nM. In the case of `O=C1N2[C@@H](CC[C@H]2c2cnccn2)OC12CCN(c1ccnc3c(F)cnn13)CC2` [Example 4.140, (5′S,7a′R)-1-(3-fluoropyrazolo[1,5-a]pyrimidin-7-yl)-5′-(pyrazin-2-yl)tetrahydro-3′H-spiro[piperidine-4,2′-pyrrolo[2,1-b] [1,3]oxazol]-3′-one], the 50% effective concentration (EC50) was 25.6 nM.

For `O=C1N2[C@@H](CC[C@H]2c2cc(F)cc(F)c2)OC12CCN(c1ccc(Br)c3ncnn13)CC2` [Example 13.7, (5′S,7a′R)-1-(8-bromo-[1,2,4]triazolo[1,5-a]pyridin-5-yl)-5′-(3,5-difluorophenyl)tetrahydro-3′H-spiro[piperidine-4,2′-pyrrolo[2,1-b]oxazol]-3′-one], the EC50 is less than 25 nM. For `O=C(c1nc(C2CC2)no1)N1CCC2(CC1)O[C@@H]1CC[C@@H](c3cc(F)cc(F)c3)N1C2=O` [Example 6.35] the value was 89.7 nM; for `O=C1N2[C@@H](CC[C@H]2c2ccccc2F)OC12CN(c1ncco1)C2` [Example 4.272, (5′S,7a′R)-5′-(2-fluorophenyl)-1-(1,3-oxazol-2-yl)tetrahydro-3′H-spiro[azetidine-3,2′-pyrrolo[2,1-b] [1,3]oxazol]-3′-one], 931 nM. As to `Cc1nc(N2CCC3(CC2)O[C@@H]2CC[C@@H](c4cc(F)cc(F)c4)N2C3=O)ncc1OC(F)F` [Example 4.58, (5′S,7a′R)-1-[5-(difluoromethoxy)-4-methylpyrimidin-2-yl]-5′-(3,5-difluorophenyl)tetrahydro-3′H-spiro[piperidine-4,2′-pyrrolo[2,1-b] [1,3]oxazol]-3′-one], the EC50 is 45.9 nM. Take `O=C(c1cc2ccccn2c1)N1CCC2(CC1)O[C@@H]1CC[C@@H](c3cc(F)cc(F)c3)N1C2=O` [Example 5.73, (5′S,7a′R)-5′-(3,5-difluoro-phenyl)-1-(indolizine-2-carbonyl)tetrahydro-3′H-spiro[piperidine-4,2′-pyrrolo[2,1-b]oxazol]-3′-one]: the EC50 is less than 25 nM. For `O=C(c1ccc(O)cc1F)N1CCC2(CC1)O[C@@H]1CC[C@@H](c3cc(F)cc(F)c3)N1C2=O` [Example 5.55, (5′S,7a′R)-5′-(3,5-difluoro-phenyl)-1-(2-fluoro-4-hydroxybenzoyl)tetrahydro-3′H-spiro[piperidine-4,2′-pyrrolo[2,1-b]oxazol]-3'-one], the half-maximal effective concentration (EC50) was determined as 26.2 nM. As to `Cn1cc([C@@H]2CC[C@H]3OC4(CCN(c5ccc(C#N)c6ncnn56)CC4)C(=O)N32)cn1` [Example 20.1, 5-((5′S,7a′R)-5′-(1-Methyl-1H-pyrazol-4-yl)-3′-oxotetrahydro-3′H-spiro[piperidine-4,2′-pyrrolo[2,1-b]oxazol]-1-yl)-[1,2,4]triazolo[1,5-a]pyridine-8-carbonitrile], the EC50 amounted to 45.4 nM. Turning to `O=C1N2[C@@H](CC[C@H]2c2ccccc2)OC12CCN(c1ccc(Cl)c3ccnn13)CC2` [Example 4.153, (5′S,7a′R)-1-(4-chloropyrazolo[1,5-a]pyridin-7-yl)-5′-phenyltetrahydro-3′H-spiro[piperidine-4,2′-pyrrolo[2,1-b] [1,3]oxazol]-3′-one], the EC50 was less than 25 nM. As for `COc1ccc(F)c(C(=O)N2CCC3(CC2)O[C@@H]2CC[C@@H](c4cccc(F)c4)N2C3=O)c1` [Example 6.131, (5′S,7a′R)-1-(2-fluoro-5-methoxybenzene-1-carbonyl)-5′-(3-fluoro-phenyl)tetrahydro-3′H-spiro[piperidine-4,2′-pyrrolo[2,1-b] [1,3]oxazol]-3′-one], the EC50 was less than 25 nM.

With `N#Cc1ccc(N2CCC3(CC2)O[C@@H]2CC[C@@H](c4ccccc4)N2C3=O)n2ncc(F)c12` [Example 4.177, 3-fluoro-7-[(5′S,7a′R)-3′-oxo-5′-phenyltetrahydro-1H,3′H-spiro[piperidine-4,2′-pyrrolo[2,1-b] [1,3]oxazol]-1-yl]pyrazolo[1,5-a] pyridine-4-carbonitrile], the EC50 was less than 25 nM. With `O=C(c1nc2ccncc2s1)N1CCC2(CC1)O[C@@H]1CC[C@@H](c3cc(F)cc(F)c3)N1C2=O` [Example 6.23, (5′S,7a′R)-5′-(3,5-difluorophenyl)-1-([1,3]thiazolo[5,4-c]-pyridine-2-carbonyl) tetrahydro-3′H-spiro [piperidine-4,2′-pyrrolo[2,1-b][1,3]oxazol]-3′-one], the EC50 is 96.4 nM. In the case of `C#Cc1ccc(N2CCC3(CC2)O[C@@H]2CC[C@@H](c4ccccc4)N2C3=O)n2ncnc12` [Example 21.24, (5′S,7a′R)-1-(8-ethynyl[1,2,4]triazolo [1,5-a]pyridin-5-yl)-5′-phenyltetrahydro-3′H-spiro[piperidine-4,2′-pyrrolo[2,1-b][1,3]oxazol]-3′-one], the EC50 was less than 25 nM.
